This assay has as its target human MRGPRD (Homo sapiens, UniProt Q8TDS7). In words: MRGPRD antagonist activity, IP-One HTRF assay in CHO cells stably expressing human MRGPRD (versus 100 μM β-Alanine agonist). Format: cell-based. In a few lines: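 IP-1 HTRF read-out, with IC50 from HTRF ratio curves and percent antagonism relative to maximal efficacy (mean, SEM). Antagonists and agonist were co-incubated 1 h at 37 °C plus 1 h at room temperature on overnight-plated MRGPRD-CHO cells in LiCl-containing Tris buffer, pH 8.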
Chain of human MRGPRD (Q8TDS7 whole entry): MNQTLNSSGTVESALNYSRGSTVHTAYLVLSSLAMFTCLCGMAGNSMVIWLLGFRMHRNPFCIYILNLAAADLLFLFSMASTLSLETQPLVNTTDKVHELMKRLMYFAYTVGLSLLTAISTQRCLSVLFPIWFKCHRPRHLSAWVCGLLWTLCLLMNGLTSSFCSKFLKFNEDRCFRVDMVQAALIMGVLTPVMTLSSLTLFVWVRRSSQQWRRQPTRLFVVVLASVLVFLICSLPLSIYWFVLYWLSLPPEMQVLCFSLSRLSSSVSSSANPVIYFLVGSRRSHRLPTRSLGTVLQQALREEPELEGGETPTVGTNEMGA
The IC50 is the concentration that inhibits the measured activity by half. A lower IC50 goes with higher potency. In the case of `CCc1ccc(-c2ccc(-n3nnc(C(=O)Nc4ccncc4)c3C3CC3)cc2)cc1` [Compound 7-199], the IC50 lay within 1000 to 3000 nM.

Compound `O=C(Nc1ccncc1)c1nnn(-c2ccc(-c3ccccn3)cc2)c1C1CC1` [Compound 7-200] came in with an IC50 of 1000 to 3000 nM.

Compound `CC(C)(C)c1cccc(-c2ccc(-n3nnc(C(=O)Nc4ccncc4)c3C3CC3)cc2)c1` [Compound 7-201] gave an IC50 of 1000 to 3000 nM.

`O=C(Nc1ccncc1)c1nnn(-c2ccc(-c3ccc(C4CCCC4)cc3)cc2)c1C1CC1` [Compound 7-202] came in with an IC50 of 1000 to 3000 nM.

Compound `O=C(Nc1ccncc1)c1nnn(-c2ccc(-c3cncnc3)cc2)c1C1CC1` [Compound 7-203] had an IC50 of 1000 to 3000 nM.

On to `CN(C)C(=O)c1cccc(-c2ccc(-n3nnc(C(=O)Nc4ccncc4)c3C3CC3)cc2)c1` [Compound 7-204], for which the IC50 was 1000 to 3000 nM.

In turn, `Cc1cc(NC(=O)c2nnn(-c3ccc(-c4ccccc4)c(F)c3)c2C2CC2)ccn1` [Compound 7-205] registered a 50% inhibitory concentration (IC50) of 1000 to 3000 nM.

In turn, `Cc1cc(-c2ccc(-n3nnc(C(=O)Nc4ccncc4)c3C3CC3)cc2)n[nH]1` [Compound 7-206] gave an IC50 of 1000 to 3000 nM.

Compound `CN(C)C(=O)c1ccc(-c2ccc(-n3nnc(C(=O)Nc4ccncc4)c3C3CC3)cc2)cc1` [Compound 7-207] yielded an IC50 of 1000 to 3000 nM.

Consider `CCc1ccccc1-c1ccc(-n2nnc(C(=O)Nc3ccncc3)c2C2CC2)cc1` [Compound 7-208], for which the IC50 lay in the range of 1000 to 3000 nM.

Compound `Cc1nn(C)c(C)c1-c1ccc(-n2nnc(C(=O)NCc3nc4ccccc4n3C)c2C2CC2)cc1` [Compound 7-209] showed an IC50 of 1000 to 3000 nM.

In turn, `CN(C)Cc1ccc(-c2ccc(-n3nnc(C(=O)Nc4ccncc4)c3C3CC3)cc2)cc1` [Compound 7-210] gave an IC50 of 1000 to 3000 nM.

Consider `O=C(Nc1ccncc1)c1nnn(-c2ccc(-c3cc(CO)[nH]n3)cc2)c1C1CC1` [Compound 7-211], for which the IC50 was in the range of 1000 to 3000 nM.

In the case of `CC(C)Cn1nc(C(F)(F)F)cc1-c1ccc(-n2nnc(C(=O)Nc3ccncc3)c2C2CC2)cc1` [Compound 7-212], the IC50 is 1000 to 3000 nM.

With `O=C(O)c1cccc(-c2ccc(-n3nnc(C(=O)Nc4ccncc4)c3C3CC3)cc2)c1` [Compound 7-213], the IC50 is above 3000 nM.

`CC(C)c1ccc(-c2ccc(-n3nnc(C(=O)Nc4ccncc4)c3C3CC3)cc2)cc1` [Compound 7-214] showed an IC50 above 3000 nM.

As to `Cn1nc(-c2ccc(-n3nnc(C(=O)Nc4ccncc4)c3C3CC3)cc2)cc1N` [Compound 7-215], the IC50 was above 3000 nM.

In turn, `N#Cc1cnn(-c2ccccc2)c1-c1ccc(-n2nnc(C(=O)Nc3ccncc3)c2C2CC2)cc1` [Compound 7-216] came in with an IC50 above 3000 nM.

Turning to `Cn1cc(-c2ccc(-n3nnc(C(=O)Nc4ccncc4)c3C3CC3)cc2)c(C(F)(F)F)n1` [Compound 7-217], the IC50 is above 3000 nM.

`Cn1cc(-c2ccc(-n3nnc(C(=O)Nc4ccncc4)c3C3CC3)cc2)c(C2CC2)n1` [Compound 7-218] came in with an IC50 above 3000 nM.

`CCn1nc(C)c(-c2ccc(-n3nnc(C(=O)Nc4ccnc(C)c4)c3C3CC3)c(F)c2)c1C` [Compound 7-219]: the IC50 was below 100 nM.

In turn, `Cc1cc(NC(=O)c2nnn(-c3ccc(-c4c(C)nn(C)c4C)cc3F)c2C2CC2)ccn1` [Compound 7-220] returned an IC50 below 100 nM.

In turn, `Cc1nn(C)c(C)c1-c1ccc(-n2nnc(C(=O)Nc3ccncc3)c2C2CC2)c(F)c1` [Compound 7-221] showed an IC50 below 100 nM.

`Cc1cc(NC(=O)c2nnn(-c3ccc(-c4c(C)nn(CC(F)(F)F)c4C)cc3F)c2C2CC2)ccn1` [Compound 7-222] registered an IC50 below 100 nM.

`Cc1cc(NC(=O)c2nnn(-c3ccc(-c4c(C)nn(-c5ccccc5)c4C)cc3F)c2C2CC2)ccn1` [Compound 7-223] came in with an IC50 below 100 nM.

The compound `Cc1cc(NC(=O)c2nnn(-c3ccc(-c4c(C)nn(C)c4F)cc3F)c2C2CC2)ccn1` [Compound 7-224] gave an IC50 below 100 nM.

In the case of `Cc1ccc(C2(NC(=O)c3nnn(-c4ccc(-c5c(C)nn(-c6ccccc6)c5C)cc4F)c3C3CC3)CC2)cn1` [Compound 7-225], the IC50 was below 100 nM.

Take `COc1cc(-c2c(C)nn(C)c2C)ccc1-n1nnc(C(=O)Nc2ccncc2)c1C1CC1` [Compound 7-226]: the IC50 lay within 100 to 500 nM.

In turn, `Cc1ccc(C2(NC(=O)c3nnn(-c4ccc(-c5ccc(C#N)cc5)cc4F)c3C3CC3)CC2)cn1` [Compound 7-227] gave an IC50 of 100 to 500 nM.

As for `COc1cc(-c2ccc(C#N)cc2)ccc1-n1nnc(C(=O)Nc2ccnc(C)c2)c1C1CC1` [Compound 7-228], the IC50 lay within 100 to 500 nM.

As to `CC(=O)c1ccc(-c2cccc(-n3nnc(C(=O)Nc4ccncc4)c3C3CC3)c2)c(F)c1` [Compound 7-229], the IC50 lay in the range of 100 to 500 nM.

Regarding `Cc1cc(-c2ccc(C#N)cc2)ccc1-n1nnc(C(=O)Nc2ccncc2)c1C1CC1` [Compound 7-230], the IC50 is 100 to 500 nM.

The compound `CC(=O)c1ccc(-c2ccc(-n3nnc(C(=O)Nc4ccncc4)c3C3CC3)c(C)c2)cc1` [Compound 7-231] yielded an IC50 of 100 to 500 nM.

For the compound `Cc1nn(C)c(C)c1-c1ccc(-n2nnc(C(=O)Nc3ccncc3)c2C2CC2)cn1` [Compound 7-232], the IC50 lay in the range of 100 to 500 nM.

In the case of `Cc1cc(NC(=O)c2nnn(-c3cccc(-c4ccn(C5CC5)n4)c3)c2C2CC2)ccn1` [Compound 7-233], the IC50 was in the range of 100 to 500 nM.

The compound `Cc1nn(C)c(C)c1-c1ccc(-n2nnc(C(=O)Nc3ccncc3)c2C2CC2)cc1F` [Compound 7-234] registered an IC50 of 100 to 500 nM.

The compound `Cc1cc(NC(=O)c2nnn(-c3ccc(-c4ccc(C#N)cc4)c(F)c3)c2C2CC2)ccn1` [Compound 7-235] gave an IC50 of 100 to 500 nM.

`Cc1cc(NC(=O)c2nnn(-c3cccc(-c4ccn(C5CCCC5)n4)c3)c2C2CC2)ccn1` [Compound 7-236] returned an IC50 of 100 to 500 nM.

`CC(=O)c1cccc(-c2cccc(-n3nnc(C(=O)Nc4ccncc4)c3C3CC3)c2)c1` [Compound 7-237] came in with an IC50 of 100 to 500 nM.

Turning to `CC(=O)c1ccc(-c2ccc(-n3nnc(C(=O)Nc4ccncc4)c3C3CC3)cc2C)cc1` [Compound 7-238], the IC50 fell in the range of 100 to 500 nM.

Compound `Cc1nn(C)c(C)c1-c1ccc(-n2nnc(C(=O)Nc3ccncc3)c2C2CC2)c(OC(F)(F)F)c1` [Compound 7-239] returned an IC50 of 100 to 500 nM.

In turn, `Cc1c(-c2cccc(-n3nnc(C(=O)Nc4ccncc4)c3C3CC3)c2)cnn1-c1ccccc1` [Compound 7-240] yielded an IC50 of 100 to 500 nM.

The compound `O=C(Nc1ccncc1)c1nnn(-c2cccc(-c3cnn(CC4CC4)c3)c2)c1C1CC1` [Compound 7-241] returned an IC50 of 500 to 1000 nM.

Compound `Cc1cc(NC(=O)c2nnn(-c3ccc(-c4ccc(C#N)cc4)nc3)c2C2CC2)ccn1` [Compound 7-242] came in with an IC50 of 500 to 1000 nM.

Compound `O=C(Nc1ccncc1)c1nnn(-c2cccc(-c3cnn(C4CCC4)c3)c2)c1C1CC1` [Compound 7-243] yielded an IC50 of 500 to 1000 nM.

For the compound `COc1ccccc1-c1ccc(-n2nnc(C(=O)Nc3ccncc3)c2C2CC2)c(C)c1` [Compound 7-244], the IC50 was in the range of 500 to 1000 nM.

As to `CC(=O)c1cccc(-c2cc(-n3nnc(C(=O)Nc4ccncc4)c3C3CC3)ccc2F)c1` [Compound 7-245], the IC50 fell in the range of 500 to 1000 nM.

Turning to `Cc1cc(-n2nnc(C(=O)Nc3ccncc3)c2C2CC2)ccc1-c1cn(C)nc1C` [Compound 7-246], the IC50 is 500 to 1000 nM.

`COc1ccc(-c2cccc(-n3nnc(C(=O)Nc4ccncc4)c3C3CC3)c2)c(F)c1` [Compound 7-247] had an IC50 of 500 to 1000 nM.

These data come from patent US20260001871A1, “TRIAZOLE DERIVATIVES AS MODULATORS OF MAS-RELATED G-PROTEIN RECEPTOR D” (ESCIENT PHARMACEUTICALS, INC., priority 2022, published 2026).
